Consider 4 compounds from US20240058243A1, “A METHOD FOR FIGHTING MICROORGANISMS USING MENTHOL DERIVATIVES” (priority 2020, published 2024).

One experiment deals with Candida albicans. Briefly: Minimum inhibitory concentration, pure culture. It counts as cell-based. The source says: (§1) Antimicrobial activity was also investigated with pure cultures for three different cooling compounds. The results of Triclosan, a well-known antimicrobial, are shown for comparison.
Another experiment has as its system Corynebacterium xerosis. Briefly: Minimum inhibitory concentration, pure culture. It counts as cell-based.
Description: as §1

The next experiment concerns Staphylococcus aureus. Briefly: Minimum inhibitory concentration, pure culture. It counts as cell-based.
Description: as §1

For experiment [1], the system named is Staphylococcus epidermidis. Briefly: Minimum inhibitory concentration, pure culture. It counts as cell-based.
Description: as §1

For a further experiment, the system named is Staphylococcus hominis. Briefly: Minimum inhibitory concentration, pure culture. It counts as cell-based.
Description: as §1

A further experiment concerns Escherichia coli. Briefly: Minimum inhibitory concentration, pure culture. To be noted: for MIC: Escherichia coli, read-out: MIC Escherichia coli; for MIC Escherichia coli: Example 2 table (oral care). It counts as cell-based. The source says:
(§2) Antimicrobial activity was also investigated with pure cultures for three different cooling compounds. The results of Triclosan, a well-known antimicrobial, are shown for comparison. (Table 7):
(§3) The differential inhibition of microorganisms was also investigated with strains that typically are found in the oral cavity and that are related to oral diseases like gingivitis or caries. The cooling compounds show a better efficacy against Streptococcus mutans, Streptococcus salivarius, Porphyromonas gingivalis and Fusobacterium nucleatum in comparison to Escherichia coli.

The test system of a further experiment is Anaerococcus octavius. Briefly: Minimum inhibitory concentration, pure culture. It counts as cell-based.
Description: as §2
It should be emphasized that Anaerococcus octavius represents the category of anaerobic odour causing bacteria. As a matter of fact, it is very hard to find antimicrobial materials which are active against these germs.

For another experiment, the system named is Fusobacterium nucleatum. Briefly: Minimum inhibitory concentration, oral cavity strains. It counts as cell-based. To be noted: read-out: MIC Fusobacterium nucleatum.
Description: as §3

The next experiment relates to Porphyromonas gingivalis. The experiment is described as above. It counts as cell-based. To be noted: read-out: MIC Porphyromonas gingivalis.
Description: as §3

The next experiment relates to Streptococcus mutans. The experiment is described as above. To be noted: read-out: MIC Streptococcus mutans. It counts as cell-based.
Description: as §3

A further experiment relates to Streptococcus salivarius. The experiment is described as above. It counts as cell-based. To be noted: Example 2 table (oral care).
Description: as §3

In experiment [2] the test system is axillary microbiome in human axillary sweat. Briefly: Axillary microbiome ex vivo model: aerobic and anaerobic cell counts. It counts as cell-based. The source says: (§4) The formation of sweat odour was investigated in an axillary microbiome ex vivo model that is based on human axillary sweat. […] This includes accumulation of volatile organic acids related to sweat odour (measured with GC-MS) and conversion of non-odorous precursor molecules to the respective odorous product (measured with HPLC) going along with the development of the typical sweat odour (assessed by a sensory panel).
(§5) The resulting sweat odour is the result of microbial activity. Those microorganisms that can metabolize the nutrients contained in the sweat can also increase their cell number. Untreated sweat starts with a cell number of about 10^7 cells/ml. These numbers increase by a magnitude during incubation, both for aerobic as well as anaerobic cell count. […] Anaerobic genera like Anaerococcus, Peptoniphilus, and Finegoldia are part of the natural axillary flora (Zeeuwen et al (2012), Troccaz et al (2015)). As some of their assigned species are known to be odour causing (Fuji 2014), the limitation of their increase is of high importance for the management of the typical sweat odor. […] Table 2 refers to change in microbiome composition.

Experiment [3] shares this test system. Briefly: Axillary microbiome ex vivo model: microbiome composition. It counts as cell-based.
Description: as §4, §5

Experiment [4] concerns sweat odour of human axillary sweat. Briefly: Axillary microbiome ex vivo model: sweat odour rating by sensory panel.
Description: as §4

For experiment [5], the system named is conversion of non-odorous precursor molecules in human axillary sweat. Briefly: Axillary microbiome ex vivo model: HPLC-MS of non-odourous precursors and odorous products. It counts as cell-based.
Description: as §4

Experiment [6] relates to volatile organic acids in human axillary sweat. Briefly: Axillary microbiome ex vivo model: volatile organic acids (GC-MS). It counts as cell-based.
Description: as §4

[7] abbreviates: Table 7, read-out: MIC Candida albicans.
Setting [8] is: Table 7, read-out: MIC Corynebacterium xerosis.
[9] abbreviates: Table 7, read-out: MIC Staphylococcus aureus.
Setting [10] is: Table 7, read-out: MIC Staphylococcus epidermidis.
The mark [11] stands for this setting: Table 7, read-out: MIC Staphylococcus hominis.
[12] abbreviates: Table 7, read-out: MIC Anaerococcus octavius.
Where [13] appears, read: 5,000 ppm, after 48 h incubation of fresh sweat.

Molecules are shown by their SMILES. Converted amounts (≈) assume the structure as drawn. Where two headings read alike, the source gives them in different places. Some results are limits rather than exact numbers.

On to `CC(C)[C@@H]1CC[C@@H](C)CC12OCC(CO)O2` (mixture of isomers) [Frescolat ® MGA, Menthon Glyceryl Acetal], for which the MIC (in general, the lowest concentration that inhibits growth of the organism) in the experiment on Candida albicans (setting [7]) was > 1 µg/mL; in the experiment on Corynebacterium xerosis (setting [8]), 500 µg/mL; in the experiment with Staphylococcus aureus (setting [9]) it was 1 µg/mL; in [1] (setting [10]) it was 500 µg/mL; with Staphylococcus hominis (setting [11]), 500 µg/mL; in the experiment on Escherichia coli (Table 7) it was > 1 µg/mL. Further, the MIC in the experiment with Anaerococcus octavius (setting [12]) is 2.5 µg/mL; with Fusobacterium nucleatum (Example 2 table (oral care)), 500 µg/mL; with Porphyromonas gingivalis (Example 2 table (oral care)), 250 µg/mL; in the experiment with Streptococcus mutans (Example 2 table (oral care)) it was 500 µg/mL; in the experiment with Streptococcus salivarius, 500 µg/mL. Further, the “MIC Escherichia coli” value with Escherichia coli is on record as >1.000 ppm.
Turning to `CC(O)C(=O)O[C@@H]1C[C@H](C)CC[C@H]1C(C)C` (stereo in doubt) [Frescolat ® ML, Menthyl Lactate], the “Cell number development compared to untreated” value in [2] (5000 ppm added to fresh sweat) is on record as “slight reduction compared to untreated”. In experiment [2] (setting [13]), this compound had an Aerobic cell count of 6.85E+07 cells/ml and an Anaerobic cell count of 1.08E+07 cells/ml. Besides, in [3] (5000 ppm added to fresh sweat), the “Abundance of anaerobic odour causing genera Anaerococcus, Finegoldia and Moraxella” value was “inhibited in their abundance increase”; the “Relative abundance of Raoultella, Corynebacterium and Staphylococcus versus untreated” value was “same relative abundance as in the untreated sample”. In experiment [3] (5,000 ppm, after 48 h), the “Relative abundance Anaerococcus” value worked out at 1.6%, the “Relative abundance Below 0.1%” value was 1.1%, the “Relative abundance Citrobacter” value came to 11.7% and the “Relative abundance Corynebacterium” value turned out to be 2.8%. For the same compound, in experiment [3] (5,000 ppm, after 48 h), the “Relative abundance Enterobacter” value amounted to 32.6%, the “Relative abundance Finegoldia” value stood at 0.2%, the “Relative abundance Kluyvera” value turned out to be 0.9% and the “Relative abundance Moraxella” value is 0.0%. In [3] (5,000 ppm, after 48 h), the “Relative abundance Propionibacterium” value is 7.6%, the “Relative abundance Raoultella” value is listed as 39.1%, the “Relative abundance Staphylococcus” value was 2.2% and the “Relative abundance Streptococcus” value is on record as 0.1%. The “Relative abundance Undefined” value in experiment [3] (5,000 ppm, after 48 h) came to 0.0%. In [4] (5000 ppm added to fresh sweat), the “Odour development in sensory analysis in comparison to untreated” value is on record as “clear reduction of odour development”. Also, the “Odor rating (smell intensity), mean” value in experiment [4] (5000 ppm, 48 h, mean of 8 panelists) turned out to be 2.4. The “Formation of odorous products” value in experiment [5] (5000 ppm added to fresh sweat) was “drastically reduced formation”. For the same compound, in [5] (5000 ppm, 48 h), the “Concentration of non-odourous pre-cursour N-α-3-hydroxy-3-methylhexanoyl-L-glutamine (HMHA-Gln)” value came out at 102.24 ppm; the “Concentration of non-odourous pre-cursour N-α-[(2E)-3-methyl-2-hexenoyl]-L-glutamine (3M2H-Gln)” value was 10.42 ppm; the “Concentration of odorous products, line N-α-3-hydroxy-3-methylhexanoyl-L-glutamine (HMHA-Gln)” value came out at 0.43 ppm; the “Concentration of odorous products, line N-α-[(2E)-3-methyl-2-hexenoyl]-L-glutamine (3M2H-Gln)” value was determined as 1.69 ppm. The “Formation of volatile organic acids” value in experiment [6] (5000 ppm added to fresh sweat) is “drastically reduced formation”. For the same compound, in [6] (5000 ppm, 48 h), the “Concentration of 2-Methylbutyric Acid” value amounted to 0 ppm, the “Concentration of Acetic Acid” value is given as 11.1 ppm, the “Concentration of Butyric Acid” value is on record as 0.3 ppm and the “Concentration of Capric Acid” value is reported as 1.3 ppm. Further, in [6] (5000 ppm, 48 h), the “Concentration of Capronic Acid” value is 0.6 ppm, the “Concentration of Caprylic Acid” value is 1.5 ppm, the “Concentration of Lauric Acid” value is on record as 1.7 ppm and the “Concentration of Propanoic Acid” value was determined as 2.2 ppm. The “Concentration of Valeric Acid” value in experiment [6] (5000 ppm, 48 h) turned out to be 0 ppm. In the experiment with Candida albicans (setting [7]), the MIC was determined as 1 µg/mL. Moreover, the minimal inhibitory concentration (MIC) in the experiment with Corynebacterium xerosis (setting [8]) turned out to be 250 µg/mL. The MIC in the experiment with Staphylococcus aureus (setting [9]) was 250 µg/mL. The MIC in experiment [1] (setting [10]) turned out to be 500 µg/mL. Moreover, the MIC with Staphylococcus hominis (setting [11]) worked out at 250 µg/mL. Also, the minimum inhibitory concentration (MIC) in the experiment with Escherichia coli (Table 7) is > 5 µg/mL. Also, the “MIC Escherichia coli” value with Escherichia coli is listed as >5.000 ppm. Also, the MIC with Anaerococcus octavius (setting [12]) was 500 µg/mL. Also, in the experiment on Fusobacterium nucleatum (Example 2 table (oral care)), the MIC came out at 250 µg/mL. In addition, in the experiment on Porphyromonas gingivalis (Example 2 table (oral care)), the MIC worked out at 125 µg/mL. In addition, the MIC in the experiment on Streptococcus mutans (Example 2 table (oral care)) came to 125 µg/mL. Moreover, the minimal inhibitory concentration (MIC) in the experiment with Streptococcus salivarius was found to be 500 µg/mL.
In the case of `Oc1cc(Cl)ccc1Oc1ccc(Cl)cc1Cl` [Triclosan, reference compound], the MIC in the experiment on Candida albicans (read-out: MIC Candida albicans) is 16 µg/mL (≈ 55.3 µM); in the experiment with Corynebacterium xerosis (read-out: MIC Corynebacterium xerosis), 8 µg/mL (≈ 27.6 µM); with Staphylococcus aureus (read-out: MIC Staphylococcus aureus), 2 µg/mL (≈ 6.91 µM); in experiment [1] (read-out: MIC Staphylococcus epidermidis), 4 µg/mL (≈ 13.8 µM); in the experiment with Staphylococcus hominis (read-out: MIC Staphylococcus hominis), 4 µg/mL (≈ 13.8 µM); in the experiment with Escherichia coli, > 1 µg/mL. Further, the MIC in the experiment on Anaerococcus octavius (read-out: MIC Anaerococcus octavius) was > 500 µg/mL; with Fusobacterium nucleatum, 8 µg/mL (≈ 27.6 µM); in the experiment on Porphyromonas gingivalis it was 1 µg/mL (≈ 3.45 µM); in the experiment with Streptococcus mutans it was 8 µg/mL (≈ 27.6 µM). Besides, the “MIC Escherichia coli” value in the experiment with Escherichia coli is >1 ppm.
For the compound `CC(C)[C@@H]1CC[C@@H](C)C[C@H]1OC(=O)OCCO` [Frescolat ® MGC, Menthol Ethylene Glycol Carbonate], the MIC is > 1 µg/mL in the experiment on Candida albicans (setting [7]); 500 µg/mL (≈ 2050 µM) in the experiment on Corynebacterium xerosis (setting [8]); 500 µg/mL (≈ 2050 µM) in the experiment on Staphylococcus aureus (setting [9]); 500 µg/mL (≈ 2050 µM) with Staphylococcus hominis (setting [11]); > 1 µg/mL in the experiment on Escherichia coli (Table 7); 1 µg/mL (≈ 4.09 µM) in the experiment on Anaerococcus octavius (setting [12]). Further, the MIC was 16 µg/mL (≈ 65.5 µM) in the experiment with Fusobacterium nucleatum (Example 2 table (oral care)), 125 µg/mL (≈ 512 µM) with Porphyromonas gingivalis (Example 2 table (oral care)), 250 µg/mL (≈ 1020 µM) in the experiment with Streptococcus mutans (Example 2 table (oral care)) and 500 µg/mL (≈ 2050 µM) against Streptococcus salivarius. The “MIC Escherichia coli” value in the experiment with Escherichia coli is >1.000 ppm.
